Consider 29 compounds from PubChem BioAssay (NCI).

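The compound was tested at five concentrations on cells cultured in 96-well plates, with a 48-hour exposure period. GI50 = concentration required for 50% inhibition of growth. The concentration for full growth arrest is given as TGI.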

In one test the test system is SNB-75 CNS. In words: NCI anticancer screen, dose series, 48 h.
Compound `CCCCCCN(CCCCCC)C(=O)Cc1c2n(c3ccccc13)Cc1ccccc1-2` yielded a TGI above 100 µM.

`CCCCCCCCC/C=C1\CCC(CN2CCOCC2)C1=O` (centres undefined) registered a TGI of 16 µM.

For the compound `CC(=O)OC1COC(n2ccc3cc(Br)c([N+](=O)[O-])cc32)C(OC(C)=O)C1OC(C)=O` (centres undefined), the TGI came out at 75.2 µM.

In turn, `CCOC(=O)NC(=O)c1cn(CCCO)c(=O)[nH]c1=O` returned a TGI above 100 µM.

For `CN(C)c1nc(=Nc2ccc(N=c3nc(N(C)C)ss3)cc2)ss1`, the TGI is above 100 µM.

`CCc1cc(Cc2cc(CC)c(NC(=O)C(=O)Cc3ccccn3)c(CC)c2Cl)c(Cl)c(CC)c1NC(=O)C(=O)Cc1ccccn1` showed a TGI above 100 µM.

The compound `C[Si](C)(C)C1(Sc2ccccc2)SCCCS1` showed a TGI above 100 µM.

`Cc1cc(-c2ccc3nc(C4CCOCC4)n(CCOC(F)(F)F)c3c2)cn(C)c1=O` returned a TGI of 5.97 µM.

Regarding `O=C(CSc1ccc(Cl)cc1)Nc1ccc(-c2nc3ccccc3s2)c(Cl)c1`, the GI50 is 29.1 µM and the TGI is above 100 µM.

`c1ccc(COc2cccc3ccc[n+](Cc4ccccc4)c23)cc1` yielded a TGI of 19.4 µM.

Turning to `O=S1(=O)OCCOS(=O)(=O)C1Br`, the TGI was above 100 µM.

Compound `CCOC(=O)C(=C=C=C(c1ccccc1)c1ccccc1)C(=O)OCC` gave a TGI of 21.9 µM.

The compound `CC1=CC(O)(c2ccc(-c3ccccc3Cl)cc2)OC1=O` (centres undefined) yielded a TGI above 100 µM.

In turn, `CC(C)(C)OC(=O)N[C@H]1CC2(C=C(Cl)C(=O)C(Cl)=C2)OC1=O` displayed a TGI of 41.1 µM.

Regarding `OCCCCCNCc1cc2cc3c(cc2c2cc(OCc4ccccc4)ccc12)OCO3`, the GI50 is 1.72 µM and the TGI is 3.09 µM.

In the case of `C/C(=N\NC(=S)NC(CCC(=O)O)C(=O)O)c1ccccn1` (centres undefined), the TGI was above 100 µM.

Turning to `C#CC1(O)CCC2C3CCc4cc(Oc5nc(F)nc(-c6c7ccccc7c7sc8ccccc8n67)n5)ccc4C3CC[C@@]21C` (some centres undefined), the TGI was 89.3 µM.

Compound `Cc1ccc(NC(=O)c2cc3cc(N=Nc4ccccc4C(=O)O)ccc3oc2=O)cc1` registered a TGI above 100 µM.

On to `COc1ccc(S(=O)(=O)NNS(C)(=O)=O)cc1`, for which the TGI was above 100 µM.

For `O=C(/C=C\c1ccc(Cl)c(Cl)c1)c1ccc(Cl)cc1Cl`, the TGI stood at 46.8 µM.

`CCN1c2ccccc2C(C(SC)S(=O)(=O)c2ccc(C)cc2)c2c1[nH]c(=O)n(C)c2=O` (centres undefined) displayed a TGI of 69.7 µM.

As to `COC(OC)C(C)CC(=O)N(C)C` (centres undefined), the TGI was above 100 µM.

The next test relates to SK-OV-3 ovarian. In words: NCI anticancer screen, dose series, 48 h.
Consider `O=c1cc(-c2ccccc2)oc2cc(OCCCOc3ccc4c(=O)cc(-c5ccccc5)oc4c3)ccc12`, for which the TGI is above 100 µM.

`Clc1ccc(C(c2ccc(Cl)cc2)c2ccccn2)cc1` returned a TGI of 86.5 µM.

Take `CCN1CCN(c2nc(C)cc(N(CCNc3ccnc4cc(Cl)ccc34)Cc3ccc4c(c3)OCO4)n2)CC1`: the GI50 was 2.99 µM and the TGI is 8.73 µM.

Consider `Cn1cnc([N+](=O)[O-])c1Sc1nc2ccccc2[nH]1`, for which the TGI is 61.8 µM.

On to `COc1ccc([C@H]2[C@@H](F)C(=O)N2c2cc(OC)c(OC)c(OC)c2)cc1F`, for which the GI50 was 3.45 µM and the TGI was above 100 µM.

Regarding `CCCCCCN(CCCCCC)C(=O)Cc1c2n(c3ccccc13)Cc1ccccc1-2`, the TGI is above 100 µM.

`CCCCCCCCC/C=C1\CCC(CN2CCOCC2)C1=O` (centres undefined) registered a TGI of 31.2 µM.

Consider `CC(=O)OC1COC(n2ccc3cc(Br)c([N+](=O)[O-])cc32)C(OC(C)=O)C1OC(C)=O` (centres undefined), for which the TGI is above 100 µM.

As for `CCOC(=O)NC(=O)c1cn(CCCO)c(=O)[nH]c1=O`, the TGI was above 100 µM.

Take `CN(C)c1nc(=Nc2ccc(N=c3nc(N(C)C)ss3)cc2)ss1`: the TGI is above 100 µM.

`CCc1cc(Cc2cc(CC)c(NC(=O)C(=O)Cc3ccccn3)c(CC)c2Cl)c(Cl)c(CC)c1NC(=O)C(=O)Cc1ccccn1` displayed a TGI above 100 µM.

The compound `C[Si](C)(C)C1(Sc2ccccc2)SCCCS1` displayed a TGI above 100 µM.

In the case of `Cc1cc(-c2ccc3nc(C4CCOCC4)n(CCOC(F)(F)F)c3c2)cn(C)c1=O`, the TGI was 1.25 µM.

Regarding `O=C(CSc1ccc(Cl)cc1)Nc1ccc(-c2nc3ccccc3s2)c(Cl)c1`, the GI50 was 13.7 µM and the TGI was 44.1 µM.

As for `c1ccc(COc2cccc3ccc[n+](Cc4ccccc4)c23)cc1`, the TGI was 73.7 µM.

Regarding `O=S1(=O)OCCOS(=O)(=O)C1Br`, the TGI is above 100 µM.

Compound `CCOC(=O)C(=C=C=C(c1ccccc1)c1ccccc1)C(=O)OCC` had a TGI of 50.3 µM.

`CC1=CC(O)(c2ccc(-c3ccccc3Cl)cc2)OC1=O` (centres undefined) showed a TGI above 100 µM.

With `CC(C)(C)OC(=O)N[C@H]1CC2(C=C(Cl)C(=O)C(Cl)=C2)OC1=O`, the TGI is above 46.4 µM.

With `OCCCCCNCc1cc2cc3c(cc2c2cc(OCc4ccccc4)ccc12)OCO3`, the GI50 is 3.02 µM and the TGI was determined as 7.94 µM.

With `C/C(=N\NC(=S)NC(CCC(=O)O)C(=O)O)c1ccccn1` (centres undefined), the TGI was above 100 µM.

For the compound `Cc1ccc(NC(=O)c2cc3cc(N=Nc4ccccc4C(=O)O)ccc3oc2=O)cc1`, the TGI is above 100 µM.

For `O=C(/C=C\c1ccc(Cl)c(Cl)c1)c1ccc(Cl)cc1Cl`, the TGI stood at 51 µM.

In turn, `CC(=O)/C(=C\c1cccc([N+](=O)[O-])c1)C(=O)Nc1ccccc1C` returned a TGI above 100 µM.

`CCN1c2ccccc2C(C(SC)S(=O)(=O)c2ccc(C)cc2)c2c1[nH]c(=O)n(C)c2=O` (centres undefined) showed a TGI above 100 µM.

For `COC(OC)C(C)CC(=O)N(C)C` (centres undefined), the TGI is above 100 µM.

The subject of a further test is NCI/ADR-RES ovarian. In words: NCI anticancer screen, dose series, 48 h.
Regarding `CCN1CCN(c2nc(C)cc(N(CCNc3ccnc4cc(Cl)ccc34)Cc3ccc4c(c3)OCO4)n2)CC1`, the GI50 is 2.82 µM and the TGI came to 10.8 µM.

In the case of `COc1ccc([C@H]2[C@@H](F)C(=O)N2c2cc(OC)c(OC)c(OC)c2)cc1F`, the GI50 was 0.0424 µM and the TGI is above 100 µM.

In the case of `Cc1cc(-c2ccc3nc(C4CCOCC4)n(CCOC(F)(F)F)c3c2)cn(C)c1=O`, the GI50 is 0.918 µM.

As for `O=C(CSc1ccc(Cl)cc1)Nc1ccc(-c2nc3ccccc3s2)c(Cl)c1`, the GI50 is 4.39 µM and the TGI turned out to be 32.6 µM.

The next test relates to CCRF-CEM leukemia. In words: NCI anticancer screen, dose series, 48 h.
Consider `O=c1cc(-c2ccccc2)oc2cc(OCCCOc3ccc4c(=O)cc(-c5ccccc5)oc4c3)ccc12`, for which the TGI was above 100 µM.

In the case of `COc1cc2c(c(OC)c1OC)-c1ccc(OC)c(=O)cc1C(NC(=O)c1ccc(N=[N+]=[N-])cc1)CC2` (centres undefined), the TGI was above 24.5 µM.

The compound `Clc1ccc(C(c2ccc(Cl)cc2)c2ccccn2)cc1` came in with a TGI of 48.1 µM.
